≈ marks a conversion by molar mass, not a printed value. Calls of active or inactive are those of the source. The rule behind the calls is not given here.

Among the data in ChEMBL document CHEMBL4819085, “Dipyridyl-substituted thiosemicarbazone as a potent broad-spectrum inhibitor of metallo-β-lactamases” (Bioorg Med Chem, 2021) are MIC, inhibition and IC50 values, retold here.

Assay [1] relates to Escherichia coli. In words: Inhibition of Escherichia coli IMP-1 assessed as reduction in bacterial growth incubated for 24 hrs by broth microdilution method.
Assay [2] has as its system Escherichia coli. As to the kind of experiment: Antibacterial activity against Escherichia coli 01 assessed as reduction in bacterial growth incubated for 24 hrs by broth microdilution method. The class given is functional. On the technique in general: In broth dilution the organism is exposed to a series of concentrations in liquid medium.
The test system of assay [3] is Klebsiella pneumoniae. In words: In vivo antibacterial activity against Klebsiella pneumoniae producing NDM-1 infected in mouse assessed as reduction in bacterial load in liver at 10 mg/kg, ip. The class given is functional, organism-based.
The subject of assay [4] is Klebsiella pneumoniae. As to the kind of experiment: In vivo antibacterial activity against Klebsiella pneumoniae producing NDM-1 infected in mouse assessed as reduction in bacterial load in spleen at 10 mg/kg, ip. The class given is functional, organism-based.
The test system of assay [5] is Escherichia coli. In words: Inhibition of Escherichia coli NDM-1 assessed as reduction in bacterial growth incubated for 24 hrs by broth microdilution method.
The subject of assay [6] is Klebsiella pneumoniae. In words: Antibacterial activity against Klebsiella pneumoniae assessed as reduction in bacterial growth incubated for 24 hrs by broth microdilution method. The class given is functional.
Assay [7] deals with Escherichia coli. As to the kind of experiment: Inhibition of Escherichia coli L1 assessed as reduction in bacterial growth incubated for 24 hrs by broth microdilution method.
Assay [8] deals with Escherichia coli. In words: Antibacterial activity against Escherichia coli 04 assessed as reduction in bacterial growth incubated for 24 hrs by broth microdilution method. The class given is functional.
The subject of assay [9] is Escherichia coli. In words: Inhibition of Escherichia coli ImiS assessed as reduction in bacterial growth incubated for 24 hrs by broth microdilution method.
The test system of assay [10] is Enterococcus faecium. In words: Antibacterial activity against vancomycin-resistant Enterococcus faecium assessed as reduction in bacterial growth incubated for 24 hrs by broth microdilution method. The class given is functional.
For assay [11], the system named is Pseudomonas aeruginosa. As to the kind of experiment: Antibacterial activity against Carbapenem-resistant Pseudomonas aeruginosa assessed as reduction in bacterial growth incubated for 24 hrs by broth microdilution method. The class given is functional.
Assay [12] deals with Escherichia coli. In words: Antibacterial activity against Escherichia coli 08 assessed as reduction in bacterial growth incubated for 24 hrs by broth microdilution method. The class given is functional.
For assay [13], the system named is Escherichia coli. As to the kind of experiment: Antibacterial activity against Escherichia coli 06 assessed as reduction in bacterial growth incubated for 24 hrs by broth microdilution method. The class given is functional.
Assay [14] deals with Staphylococcus aureus. As to the kind of experiment: Antibacterial activity against methicillin-resistant Staphylococcus aureus assessed as reduction in bacterial growth incubated for 24 hrs by broth microdilution method. The class given is functional.
Assay [15] deals with Escherichia coli. As to the kind of experiment: Antibacterial activity against Escherichia coli 24 assessed as reduction in bacterial growth incubated for 24 hrs by broth microdilution method. The class given is functional.
Assay [16] addresses Metallo-beta-lactamase (Escherichia coli) (UniProt Q5U7L7). In words: Inhibition of Escherichia coli VIM-2 assessed as reduction in bacterial growth incubated for 24 hrs by broth microdilution method.
The test system of assay [17] is Bacteria. As to the kind of experiment: Inhibition of bacterial NDM-1 expressed in Escherichia coli BL21 (DE3) at 20 uM using meropenem as substrate incubated for 1 hr by spectrometry analysis relative to control.
Assay [18] in a line: Inhibition of bacterial NDM-1 expressed in Escherichia coli BL21 (DE3) using meropenem as substrate incubated for 1 hr by spectrometry analysis. The arrangement: species or system Bacteria.
Assay [19] can be described thus: Inhibition of bacterial VIM-2 expressed in Escherichia coli BL21 (DE3) using meropenem as substrate incubated for 1 hr by spectrometry analysis. The arrangement: species or system Bacteria.
Assay [20] in a line: Inhibition of bacterial IMP-1 using meropenem as substrate incubated for 1 hr by spectrometry analysis. The arrangement: species or system Bacteria.
The nature of assay [21]: Inhibition of bacterial L1 using meropenem as substrate incubated for 1 hr by spectrometry analysis. Also noted: species or system Bacteria.
Assay [22] can be described thus: Inhibition of bacterial ImiS expressed in Escherichia coli BL21 (DE3) using meropenem as substrate incubated for 1 hr by spectrometry analysis. Also noted: species or system Bacteria.

For the compound `C[C@@H](O)[C@H]1C(=O)N2C(C(=O)O)=C(S[C@@H]3CN[C@H](C(=O)N(C)C)C3)[C@H](C)[C@H]12` [MEROPENEM], the MIC in assay [1] is 32 µg/mL (≈ 0.0834 mM); in assay [2], 128 µg/mL (≈ 0.334 mM); in assay [5], 128 µg/mL (≈ 0.334 mM); in assay [6], 256 µg/mL (≈ 0.668 mM); in [7], 128 µg/mL (≈ 0.334 mM); in assay [8], 64 µg/mL (≈ 0.167 mM). In addition, the MIC was determined as 64 µg/mL (≈ 0.167 mM) in assay [9]; 256 µg/mL (≈ 0.668 mM) in assay [10]; 8 µg/mL (≈ 0.0209 mM) in assay [11]; 128 µg/mL (≈ 0.334 mM) in assay [12]; 128 µg/mL (≈ 0.334 mM) in assay [13]; 64 µg/mL (≈ 0.167 mM) in [14]. For the same compound, the values for the MIC in assay [15] and in assay [16] were 128 µg/mL (≈ 0.334 mM) and 64 µg/mL (≈ 0.167 mM), respectively. The inhibition result in [3] and in [4] was “Active” in each case. Besides, in [17], the inhibition is greater than 90%.

For the compound `CC1(C)S[C@@H]2[C@H](NC(=O)[C@H](N)c3ccccc3)C(=O)N2[C@H]1C(=O)O` [AMPICILLIN], the MIC in assay [2] is greater than 16000 µg/mL; in [6], 8190 µg/mL (≈ 23.4 mM); in assay [8], greater than 16000 µg/mL; in assay [10], greater than 16000 µg/mL; in assay [11], greater than 16000 µg/mL; in [12], greater than 16000 µg/mL. Also, the MIC in assay [13] is 8190 µg/mL (≈ 23.4 mM); in [14] it was greater than 16000 µg/mL; in assay [15] it was 16000 µg/mL (≈ 45.8 mM).

On to `CO/N=C(\C(=O)N[C@@H]1C(=O)N2C(C(=O)O)=C(CSc3nc(=O)c(O)nn3C)CS[C@H]12)c1csc(N)n1` [CEFTRIAXONE], for which the MIC turned out to be 16000 µg/mL (≈ 28.9 mM) in assay [2]; 8190 µg/mL (≈ 14.8 mM) in assay [6]; 16000 µg/mL (≈ 28.9 mM) in [8]; 512 µg/mL (≈ 0.923 mM) in assay [10]; 64 µg/mL (≈ 0.115 mM) in assay [11]; 16000 µg/mL (≈ 28.9 mM) in [12]. For the same compound, the results for the MIC in assay [13], in assay [14] and in [15] were 16000 µg/mL (≈ 28.9 mM), 4100 µg/mL (≈ 7.39 mM) and 16000 µg/mL (≈ 28.9 mM), respectively.

Take `Cc1nnc(SCC2=C(C(=O)O)N3C(=O)[C@@H](NC(=O)Cn4cnnn4)[C@H]3SC2)s1` [CEFAZOLIN]: the MIC in assay [2] was 16000 µg/mL (≈ 35.2 mM); in assay [6], 4100 µg/mL (≈ 9.01 mM); in assay [8], 4100 µg/mL (≈ 9.01 mM); in assay [10], 8130 µg/mL (≈ 17.9 mM); in assay [11], greater than 16000 µg/mL; in assay [12], 4100 µg/mL (≈ 9.01 mM). Besides, the MIC in assay [13], in [14] and in [15] was 4100 µg/mL (≈ 9.01 mM) each time.

With `O=C(O)C(=O)CBr` [BROMOPYRUVATE], the IC50 was 2.57 µM in assay [18]; 18.7 µM in [19]; 28.9 µM in assay [20]; greater than 40 µM in assay [21]; greater than 40 µM in assay [22].

As for `CO/N=C(\C(=O)N[C@@H]1C(=O)N2C(C(=O)O)=C(COC(C)=O)CS[C@H]12)c1csc(N)n1` [CEFOTAXIME], the MIC in assay [2] was 16000 µg/mL (≈ 35.1 mM); in assay [6] it was 16000 µg/mL (≈ 35.1 mM); in assay [8] it was greater than 16000 µg/mL; in assay [10], 4100 µg/mL (≈ 8.99 mM); in assay [11] it was greater than 16000 µg/mL; in assay [12] it was 8190 µg/mL (≈ 18 mM). The MIC in [13] amounted to 8190 µg/mL (≈ 18 mM); in assay [14] it was 1020 µg/mL (≈ 2.25 mM); in assay [15], 16000 µg/mL (≈ 35.1 mM).

For orientation: inhibition means the percentage by which the read-out fell short of the control. What is called IC50 is the concentration needed to halve the response being measured. Low readings indicate higher potency, high ones lower potency.
